Measured values as given in patent publication US20260207602A1, “EGFR INHIBITORS” (Blueprint Medicines Corporation, priority 2022, published 2026).

Key:
EGFR (d746-750) = biological target: T1, EGFR (d746-750) (Homo sapiens, UniProt P00533, DEL746-750); assay: Biochemical EGFR inhibition assay (Caliper mobility shift), EGFR (d746-750); conditions: biochemical Caliper mobility shift assay, EGFR Exon 19-del enzyme; read-out: Enz EGFR Exon 19-del IC50
T1 construct: purchased SignalChem E10-122JG
How it was run: (§1)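 Kinase activity measured as phosphorylation of 2.5 µM 5-FAM-labelled peptide substrate in 100 mM HEPES pH 7.5, 10 mM MgCl2, 0.015% Brij-35, 1 mM DTT, 1.0% DMSO, at 1.0 mM ATP or ATP Km. Run at 25 °C to 10–20% conversion, stopped with EDTA; product resolved by mobility shift, apparent IC50 from percent activity vs log concentration.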

[1] = biological target: intracellular phosphorylation of EGFR (Tyr1068) in PC-9 cells (Homo sapiens, UniProt P00533, DEL746-750); assay: PC-9 pEGFR AlphaLISA assay; type: cell-based; conditions: 4 hours incubation, read-out: Phos EGFR PC9 IC50
How it was run: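 PC-9 cells (EGFR del746-750) in phenol-free DMEM/10% FBS, adhered overnight, then exposed to 10-point 4-fold compound dilutions for 4 h at 37 °C. Lysates assayed for pEGFR Tyr1068 by AlphaLISA SureFire Ultra; IC50 from percent pEGFR inhibition vs log concentration.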

EGFR L858R = biological target: T2, EGFR L858R (Homo sapiens, UniProt P00533, L858R); assay: Biochemical EGFR inhibition assay (Caliper mobility shift), EGFR L858R; conditions: biochemical Caliper mobility shift assay, EGFR L858R enzyme; read-out: Enz EGFR L858R IC50
T2 construct: purchased SignalChem E10-122BG
How it was run: as §1

T1 sequence (P00533 with tags, fused parts or gaps DEL746-750 limits assumed): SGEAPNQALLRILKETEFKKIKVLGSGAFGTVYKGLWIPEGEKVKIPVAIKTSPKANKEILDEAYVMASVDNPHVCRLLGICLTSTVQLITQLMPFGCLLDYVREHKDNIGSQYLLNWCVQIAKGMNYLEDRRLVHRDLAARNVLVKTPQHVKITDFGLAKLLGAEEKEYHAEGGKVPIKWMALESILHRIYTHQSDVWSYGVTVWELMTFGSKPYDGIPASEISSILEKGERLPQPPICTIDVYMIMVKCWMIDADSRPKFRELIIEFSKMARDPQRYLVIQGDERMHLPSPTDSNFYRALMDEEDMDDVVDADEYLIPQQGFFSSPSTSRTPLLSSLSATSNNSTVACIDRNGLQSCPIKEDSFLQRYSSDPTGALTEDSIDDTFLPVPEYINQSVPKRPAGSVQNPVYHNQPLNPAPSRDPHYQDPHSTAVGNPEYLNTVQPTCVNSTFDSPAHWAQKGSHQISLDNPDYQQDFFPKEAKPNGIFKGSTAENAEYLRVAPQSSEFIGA
T2 sequence (P00533 25-1210 L858R): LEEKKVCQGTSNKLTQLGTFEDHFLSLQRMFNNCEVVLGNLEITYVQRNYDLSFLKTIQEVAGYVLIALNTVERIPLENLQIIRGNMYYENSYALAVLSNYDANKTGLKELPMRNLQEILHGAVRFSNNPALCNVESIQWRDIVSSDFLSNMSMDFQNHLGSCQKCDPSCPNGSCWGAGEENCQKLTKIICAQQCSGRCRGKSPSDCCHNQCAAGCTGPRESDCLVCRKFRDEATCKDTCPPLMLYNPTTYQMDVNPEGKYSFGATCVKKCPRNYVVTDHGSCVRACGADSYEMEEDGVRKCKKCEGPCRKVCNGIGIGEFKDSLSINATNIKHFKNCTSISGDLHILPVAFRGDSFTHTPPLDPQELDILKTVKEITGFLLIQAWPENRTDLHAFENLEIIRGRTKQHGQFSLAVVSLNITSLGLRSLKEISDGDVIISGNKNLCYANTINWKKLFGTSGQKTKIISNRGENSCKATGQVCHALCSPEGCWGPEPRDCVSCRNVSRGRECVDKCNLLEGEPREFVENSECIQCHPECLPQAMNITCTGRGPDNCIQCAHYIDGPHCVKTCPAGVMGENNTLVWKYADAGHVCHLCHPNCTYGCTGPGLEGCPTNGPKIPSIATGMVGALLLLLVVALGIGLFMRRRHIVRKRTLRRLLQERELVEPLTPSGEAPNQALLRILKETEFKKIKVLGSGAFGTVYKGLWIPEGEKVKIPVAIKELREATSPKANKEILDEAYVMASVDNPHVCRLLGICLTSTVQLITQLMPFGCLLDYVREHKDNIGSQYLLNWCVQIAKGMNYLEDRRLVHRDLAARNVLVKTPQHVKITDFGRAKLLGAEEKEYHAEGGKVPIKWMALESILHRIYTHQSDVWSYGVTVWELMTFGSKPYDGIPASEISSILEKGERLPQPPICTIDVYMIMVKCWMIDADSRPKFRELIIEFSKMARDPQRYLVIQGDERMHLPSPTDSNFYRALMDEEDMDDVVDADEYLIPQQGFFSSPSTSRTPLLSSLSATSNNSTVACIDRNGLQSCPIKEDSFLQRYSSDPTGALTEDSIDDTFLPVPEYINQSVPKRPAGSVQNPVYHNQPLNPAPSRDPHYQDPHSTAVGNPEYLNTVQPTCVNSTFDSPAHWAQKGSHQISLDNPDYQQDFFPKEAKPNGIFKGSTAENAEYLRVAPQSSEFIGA
intracellular phosphorylation of EGFR (Tyr1068) in PC-9 cells, sequence (P00533 with tags, fused parts or gaps DEL746-750): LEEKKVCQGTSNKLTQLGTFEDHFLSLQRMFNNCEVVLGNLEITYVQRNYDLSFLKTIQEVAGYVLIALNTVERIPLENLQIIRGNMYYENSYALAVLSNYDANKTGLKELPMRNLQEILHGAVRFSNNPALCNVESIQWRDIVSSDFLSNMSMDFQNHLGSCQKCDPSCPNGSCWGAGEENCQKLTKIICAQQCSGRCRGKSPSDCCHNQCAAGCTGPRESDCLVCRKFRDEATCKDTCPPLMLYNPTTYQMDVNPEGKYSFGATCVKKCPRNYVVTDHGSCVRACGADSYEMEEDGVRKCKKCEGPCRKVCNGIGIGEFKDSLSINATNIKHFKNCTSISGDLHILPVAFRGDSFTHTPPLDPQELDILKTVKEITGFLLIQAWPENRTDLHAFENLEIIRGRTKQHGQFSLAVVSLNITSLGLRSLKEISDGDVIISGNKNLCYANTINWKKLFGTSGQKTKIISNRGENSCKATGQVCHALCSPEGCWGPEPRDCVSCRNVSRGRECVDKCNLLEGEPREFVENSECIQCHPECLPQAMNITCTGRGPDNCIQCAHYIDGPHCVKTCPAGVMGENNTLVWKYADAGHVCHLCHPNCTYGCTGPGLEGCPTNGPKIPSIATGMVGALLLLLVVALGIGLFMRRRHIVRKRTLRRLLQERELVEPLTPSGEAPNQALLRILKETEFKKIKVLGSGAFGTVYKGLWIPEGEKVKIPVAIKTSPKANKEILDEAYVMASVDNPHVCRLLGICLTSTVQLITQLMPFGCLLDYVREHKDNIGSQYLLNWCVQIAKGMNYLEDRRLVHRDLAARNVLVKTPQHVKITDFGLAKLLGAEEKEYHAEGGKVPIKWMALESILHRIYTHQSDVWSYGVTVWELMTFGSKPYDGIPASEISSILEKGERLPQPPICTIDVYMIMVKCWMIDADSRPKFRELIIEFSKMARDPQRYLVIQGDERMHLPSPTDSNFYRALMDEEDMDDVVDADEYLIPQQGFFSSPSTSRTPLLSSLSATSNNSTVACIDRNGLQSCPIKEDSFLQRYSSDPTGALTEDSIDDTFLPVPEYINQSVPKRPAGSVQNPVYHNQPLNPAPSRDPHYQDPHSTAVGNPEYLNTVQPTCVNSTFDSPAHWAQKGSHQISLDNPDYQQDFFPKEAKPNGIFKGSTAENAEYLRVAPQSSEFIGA

Row | SMILES | IC50 (EGFR (d746-750)) [nM] | IC50 [1] [nM] | IC50 (EGFR L858R) [nM]
1 | C[C@H](CN1CCC1)Oc1cc(-c2cnn(C)c2)cc2ncnc(Nc3ccc4ncsc4c3)c12 [Example 394, (R)-N-(5-((1-(azetidin-1-yl)propan-2-yl)oxy)-7-(1-methyl-1H-pyrazol-4-yl)quinazolin-4-yl)benzo[d]thiazol-6-amine] | ≤ 10 | ≤ 10 | ≤ 10
2 | COCCOc1cc(O[C@H](C)C2COC2)c2c(Nc3ccc4ncsc4c3)ncnc2c1 [Example 126, (R)-N-(7-(2-methoxyethoxy)-5-(1-(oxetan-3-yl)ethoxy)quinazolin-4-yl)benzo[d]thiazol-6-amine] | ≤ 10 | ≤ 10 | ≤ 10
3 | Cn1cc(-c2cc(O[C@H]3C[C@H](O)C3)c3c(Nc4ccc5ncsc5c4)ncnc3c2)cn1 [Example 19, trans-3-((4-(benzo[d]thiazol-6-ylamino)-7-(1-methyl-1H-pyrazol-4-yl)quinazolin-5-yl)oxy)cyclobutan-1-ol] | ≤ 10 | ≤ 10 | ≤ 10
4 | C[C@H](CN(C)C)Oc1cc(N2CC[C@@H](C(C)(C)O)C2)cc2ncnc(Nc3ccc4ncsc4c3)c12 [Example 182, 2-((R)-1-(4-(benzo[d]thiazol-6-ylamino)-5-(((R)-1-(dimethylamino)propan-2-yl)oxy)quinazolin-7-yl)pyrrolidin-3-yl)propan-2-ol] | ≤ 10 | ≤ 10 | ≤ 10
5 | C[C@@H](Oc1cc(-c2cn(C)n(C(F)F)c2=O)cc2ncnc(Nc3ccc4ncsc4c3)c12)C1COC1 (single isomer, unassigned) [Example 174] | ≤ 10 | ≤ 10 | ≤ 10
6 | CN1CCC(Oc2cc(-c3cnn(C)c3)cc3ncnc(Nc4ccc5ncsc5c4)c23)C(F)(F)C1 (stereo not drawn) [Example 2, N-(5-((3,3-difluoro-1-methylpiperidin-4-yl)oxy)-7-(1-methyl-1H-pyrazol-4-yl)quinazolin-4-yl)benzo[d]thiazol-6-amine] | ≤ 10 | ≤ 10 | ≤ 10
7 | C[C@H](CO)Oc1cc(N2CCN(C)CC2)cc2ncnc(Nc3ccc4ncsc4c3F)c12 (single isomer, unassigned) [Example 295] | ≤ 10 | ≤ 10 | 10.1 to 50
8 | CO[C@H]1CCN(c2cc(O[C@H](C)C3COC3)c3c(Nc4ccc5ncsc5c4)ncnc3c2)C1 [Example 197, N-(7-((S)-3-methoxypyrrolidin-1-yl)-5-((R)-1-(oxetan-3-yl)ethoxy)quinazolin-4-yl)benzo[d]thiazol-6-amine] | ≤ 10 | ≤ 10 | ≤ 10
9 | Cn1cc(-c2cc(O[C@H]3CNCC[C@@H]3O)c3c(Nc4ccc5ncsc5c4)ncnc3c2)cn1 (racemic) [Example A45, (3S,4S)-3-((4-(benzo[d]thiazol-6-ylamino)-7-(1-methyl-1H-pyrazol-4-yl)quinazolin-5-yl)oxy)piperidin-4-ol] | ≤ 10 | > 50.1 | 10.1 to 50
10 | Cn1cc(-c2cc(O[C@H]3CCOC[C@@H]3F)c3c(Nc4ccc5ncsc5c4)ncnc3c2)cn1 (single isomer, unassigned) [Example 46] | ≤ 10 | ≤ 10 | ≤ 10
11 | CC(C)Oc1cc(O[C@H](C)C2COC2)c2c(Nc3ccc4ncsc4c3)ncnc2c1 [Example 125, (R)-N-(7-isopropoxy-5-(1-(oxetan-3-yl)ethoxy)quinazolin-4-yl)benzo[d]thiazol-6-amine] | ≤ 10 | 10.1 to 50 | ≤ 10
12 | COc1cn(C)nc1-c1cc(O[C@H](C)C2COC2)c2c(Nc3ccc4ncsc4c3)ncnc2c1 (single isomer, unassigned) [Example 120] | ≤ 10 | ≤ 10 | ≤ 10
13 | COC[C@@H](C)Oc1cc(N2CCN(CCO)CC2)cc2ncnc(Nc3ccc4ncsc4c3)c12 [Example 196, (R)-2-(4-(4-(benzo[d]thiazol-6-ylamino)-5-((1-methoxypropan-2-yl)oxy)quinazolin-7-yl)piperazin-1-yl)ethan-1-ol] | ≤ 10 | 10.1 to 50 | ≤ 10
14 | Cn1cc(-c2cc(O[C@@H]3CCNC[C@H]3F)c3c(Nc4ccc5ncsc5c4F)ncnc3c2)cn1 [Example 348, 7-fluoro-N-(5-(((3R,4R)-3-fluoropiperidin-4-yl)oxy)-7-(1-methyl-1H-pyrazol-4-yl)quinazolin-4-yl)benzo[d]thiazol-6-amine] | ≤ 10 | ≤ 10 | ≤ 10
15 | Cn1cc(-c2cc(O[C@H]3CCCN(C4COC4)C3)c3c(Nc4ccc5ncsc5c4)ncnc3c2)cn1 [Example 317, (S)-N-(7-(1-methyl-1H-pyrazol-4-yl)-5-((1-(oxetan-3-yl)piperidin-3-yl)oxy)quinazolin-4-yl)benzo[d]thiazol-6-amine] | ≤ 10 | ≤ 10 | ≤ 10
16 | C[C@@H]1CN(c2cc(O[C@H](C)C3COC3)c3c(Nc4ccc5ncsc5c4F)ncnc3c2)CCN1 (single isomer, unassigned) [Example 100] | ≤ 10 | 10.1 to 50 | 10.1 to 50
17 | Cn1cc(-c2cc(O[C@@H]3CC[C@@H](O)C3)c3c(Nc4ccc5ncsc5c4)ncnc3c2)cn1 [Example 410, (1R,3R)-3-((4-(benzo[d]thiazol-6-ylamino)-7-(1-methyl-1H-pyrazol-4-yl)quinazolin-5-yl)oxy)cyclopentan-1-ol] | ≤ 10 | ≤ 10 | ≤ 10
18 | CN1CC[C@@H](Nc2cc3c(Nc4ccc5ncsc5c4)ncnc3cc2-c2cnn(C)c2)[C@H](F)C1 (single isomer, unassigned) [Example 326] | ≤ 10 | ≤ 10 | ≤ 10
19 | C[C@@H](Oc1cc(-c2cnn(C(C)(C)CO)c2)cc2ncnc(Nc3ccc4ncsc4c3)c12)C1COC1 (single isomer, unassigned) [Example 291] | ≤ 10 | ≤ 10 | ≤ 10
20 | CN1CC(Oc2cc(-c3cnn(C)c3)cc3ncnc(Nc4ccc5ncsc5c4)c23)C1 [Example 27, N-(7-(1-methyl-1H-pyrazol-4-yl)-5-((1-methylazetidin-3-yl)oxy)quinazolin-4-yl)benzo[d]thiazol-6-amine] | 10.1 to 50 | 10.1 to 50 | 10.1 to 50
21 | CN1CC[C@H](Nc2cc3c(Nc4ccc5ncsc5c4)ncnc3cc2-c2ccn(C)n2)[C@H](F)C1 (single isomer, unassigned) [Example A05, N4-(benzo[d]thiazol-6-yl)-N6-((3R,4S)-3-fluoro-1-methylpiperidin-4-yl)-7-(1-methyl-1H-pyrazol-3-yl)quinazoline-4,6-diamine or N4-(benzo[d]thiazol-6-yl)-N6-((3S,4R)-3-fluoro-1-methylpiperidin-4-yl)-7-(1-methyl-1H-pyrazol-3-yl)quinazoline-4,6-diamine] | ≤ 10 | ≤ 10 | ≤ 10
22 | C[C@@H]1CNCCN1c1cc(O[C@H](C)C2COC2)c2c(Nc3ccc4ncsc4c3F)ncnc2c1 (single isomer, unassigned) [Example 105] | ≤ 10 | 10.1 to 50 | 10.1 to 50
23 | COc1cc2ncnc(Nc3ccc4ncsc4c3)c2cc1NC(=O)CCN1CCCCC1 [Example 400, N-(4-(benzo[d]thiazol-6-ylamino)-7-methoxyquinazolin-6-yl)-3-(piperidin-1-yl)propanamide] | ≤ 10 | 10.1 to 50 | 10.1 to 50
24 | COc1cn(C)nc1-c1cc(O[C@H]2CCCN(C)C2)c2c(Nc3ccc4ncsc4c3F)ncnc2c1 [Example 246, (S)-7-fluoro-N-(7-(4-methoxy-1-methyl-1H-pyrazol-3-yl)-5-((1-methylpiperidin-3-yl)oxy)quinazolin-4-yl)benzo[d]thiazol-6-amine] | ≤ 10 | 10.1 to 50 | ≤ 10
25 | Cn1cc(-c2cc(O[C@@H]3CNC[C@H](F)C3)c3c(Nc4ccc5ncsc5c4)ncnc3c2)cn1 (single isomer, unassigned) [Example 335] | ≤ 10 | ≤ 10 | ≤ 10
26 | COc1cc2ncnc(Nc3ccc4ncsc4c3)c2cc1NC(=O)C1CN(C)C1 [Example 402, N-(4-(benzo[d]thiazol-6-ylamino)-7-methoxyquinazolin-6-yl)-1-methylazetidine-3-carboxamide] | 10.1 to 50 | 10.1 to 50 | > 50.1
27 | C[C@@H](Oc1cc(-c2cnn(C)c2)cc2ncnc(Nc3ccc4ncsc4c3)c12)[C@H]1CNCCO1 (single isomer, unassigned) [Example 207] | ≤ 10 | ≤ 10 | ≤ 10
28 | Cn1cc(-c2cc(O[C@@H]3CC[C@H]3O)c3c(Nc4ccc5ncsc5c4)ncnc3c2)cn1 (single isomer, unassigned) [Example A54] | ≤ 10 | 10.1 to 50 | ≤ 10
29 | COc1nn(C)cc1-c1cc(O[C@@H]2COC[C@H]2F)c2c(Nc3ccc4ncsc4c3)ncnc2c1 (racemic) [Example 8, trans-N-(5-((-4-fluorotetrahydrofuran-3-yl)oxy)-7-(3-methoxy-1-methyl-1H-pyrazol-4-yl)quinazolin-4-yl)benzo[d]thiazol-6-amine] | ≤ 10 | 10.1 to 50 | 10.1 to 50
